According to US20230414771A1, “PREPARATION AND USE OF IMMUNOSTIMULATORY CONJUGATED COMPLEXES FOR TARGETED DELIVERY AND ACTIVATION” (YAFEI SHANGHAI BIOLOGY MEDICINE SCIENCE & TECHNOLOGY CO., …, priority 2020, published 2023):
Where a SMILES comes first, the peptide text is derived from it. [ ]: non-standard residue; d: D form. The star is where a group is joined. ξ: configuration not given here. Doxorubicin(3'-N) = COc1cccc2c1C(=O)c1c(O)c3c(c(O)c1C2=O)C[C@@](O)(C(=O)CO)C[C@@H]3O[C@H]1C[C@H](N*)[C@H](O)[C@H](C)O1; X2 = CC(C)(C)c1nc(-c2cccc(NS(=O)(=O)c3c(F)cccc3F)c2F)c(-c2ccnc(N*)n2)s1; Thyronine(3,5,3'-I3) = N[C@@H](Cc1cc(I)c(Oc2ccc(O)c(I)c2)c(I)c1)C(=O)O; Mal(CH2CH2O)6CH2CH2CO = O=C1C=CC(=O)N1CCOCCOCCOCCOCCOCCOCCC(=O)*; MaleimidoPEG4propanoyl = O=C1C=CC(=O)N1CCOCCOCCOCCOCCC(=O)*; Hexanoyl(6-maleimido) = O=C1C=CC(=O)N1CCCCCC(=O)*; Propanoyl(3-maleimido) = O=C1C=CC(=O)N1CCC(=O)*; PEG6 = NCCOCCOCCOCCOCCOCCOCCC(=O)O; X3 = O=C1C=CC(=O)N1CCOCCOCCC(=O)*; PEG4 = NCCOCCOCCOCCOCCC(=O)O; PEG3 = NCCOCCOCCOCCC(=O)O; PEG2 = NCCOCCOCCC(=O)O; ξL = CC(C)CC(N)C(=O)O

Experiments:
[1] = test system: Human hepatoma HepG2 cells; assay: Human liver cancer HepG2 tumors in nude mice; type: in vivo; conditions: for Tumor volume (mm^3) Day 28: 54 umol/kg IV once a week for 4 weeks; for inhibition in vivo at 54 µmol/kg: Mus musculus, HepG2, iv, 672 h, read-out: Tumor inhibition rate (%) Day 28
Experimental: • 1. Animals: nude mice aged 6-8 weeks, all female. • 2. Preparation of tumor models
Human hepatoma HepG2 cells were purchased from ATCC and identified according to the instructions provided. […] Randomization was performed when the tumor size reached 100 mm^3.
Treatment was then initiated, and the day of initiation of treatment was counted as Day 1. • 3) Treatment process
According to the clinical application of the corresponding compound, the drug was administered intravenously (IV). The compound and the control drug were administered at a dose of 54 umol/kg, and DOX could only be administered at a dose of 18 umol/kg due to toxicity limitations.

[2] = Water solubility test (observation and HPLC); type: physicochemical; conditions: thermodynamic from solid
Experimental: The compounds prepared in accordance with the examples of the disclosure and the reference compounds C1, C2, C3 and C4 were lyophilized (−70° C.).

[3] = test system: CT26 tumor; assay: CT26 tumor immune model, tumor suppression and CD8+ T cell analysis; type: in vivo, BALB/c mice; conditions: for CD8:CD45 (%): CD8-positive among CD45-positive cells in tumor, flow cytometry; for Tumor inhibition rate (%) Day 28 / Tumor volume (mm^3) Day 28: drug 36 umol/kg once a week for three weeks, PD-1 antibody 5 mg/kg
Experimental: • 1) CT26 cells were purchased from ATCC. […] The corresponding 5×10^6 cells were injected subcutaneously into the back of […] mice. After the size of tumors reached at least 100 mm^3, the mice were randomized into groups. Treatment was then initiated, with the day of treatment initiation being Day 1. • 3) The course of treatment. The drug was administered at an equimolar dose of 36 umol/kg. The control group was given normal saline. The drug was administered once a week for three week. • 4) Tumor CD8+ T cell analysis. Tumor tissue was homogenized, individual cells in the tumor were filtered, dissociated and washed twice with buffer, and then incubated with leukocyte common antigen CD45-PE and CD8-FITC-labeled antibodies for 1 hour at room temperature. The cells were washed twice with phosphate buffered saline containing 1% fetal bovine serum, and then the proportion of T lymphocyte antigen (CD8)-positive cells in leukocyte common antigen (CD45)-positive cells was analyzed by flow cytometry. An increase in the ratio indicates an increase in T lymphocytes and therefore an improvement in the immunity of the animal to the tumor. • 5) The grouping and test results are shown in Table 7.

[4] = test system: NAFLD model mice; assay: Nonalcoholic fatty liver disease (NAFLD) model mice, serum HDL-C and LDL-C; type: in vivo; conditions: NAFLD (high-fat diet) C57 mice, IV twice a week for 8 weeks, 12 hour after last administration, normal group 100%; for Change from normal group HDL-C: serum HDL-C; for Change from normal group LDL-C: serum LDL-C
Experimental: • Methods: C57 mice were randomly divided into normal group (standard diet), model group (high-fat diet), simvastatin group (positive control, 3 mg/kg) and drug group (50 mg/kg), with 6 mice in each group. The normal group was fed with standard diet, and the other groups were fed with high-fat diet to induce NAFLD model. At the same time of modeling, the mice in each group were given the corresponding dose of 48 umol/kg medicine IV twice a week for 8 weeks in total. 12 hour after the last administration, the serum biochemical indicators were determined by automatic biochemical analyzer: High density lipoprotein cholesterol (HDL-C), and low density lipoprotein (LDL-C).

Row | Compound | inhibition in vivo at 54 µmol/kg [1] | solubility [2] | Change from normal group HDL-C [4] | Change from normal group LDL-C [4] | further results
1 | COc1cccc2c1C(=O)c1c(O)c3c(c(O)c1C2=O)C[C@@](O)(C(=O)CO)C[C@@H]3O[C@H]1C[C@H](NC(=O)[C@H](CC(C)C)NC(=O)[C@H](CC(N)=O)NC(=O)[C@H](C)NC(=O)[C@H](C)NC(=O)CCOCCOCCN2C(=O)C=CC2=O)[C@H](O)[C@H](C)O1 [QHL-009-DOX] (X3-AANL-{Doxorubicin(3'-N)}) | 100% | – | – | – | Tumor volume (mm^3) Day 28 [1]: 0 mm^3
2 | COc1cccc2c1C(=O)c1c(O)c3c(c(O)c1C2=O)C[C@@](O)(C(=O)CO)C[C@@H]3O[C@H]1C[C@H](NC(=O)[C@H](CC(C)C)NC(=O)[C@H](CC(N)=O)NC(=O)[C@H](C)NC(=O)[C@H](C)NC(=O)CCOCCOCCOCCOCCN2C(=O)C=CC2=O)[C@H](O)[C@H](C)O1 [QHL-011-DOX] (MaleimidoPEG4propanoyl-AANL-{Doxorubicin(3'-N)}) | 96.6% | – | – | – | Tumor volume (mm^3) Day 28 [1]: 98.1 ± 48.4 mm^3
3 | COc1cccc2c1C(=O)c1c(O)c3c(c(O)c1C2=O)C[C@@](O)(C(=O)CO)C[C@@H]3O[C@H]1C[C@H](NC(=O)[C@H](CC(C)C)NC(=O)[C@H](CC(N)=O)NC(=O)[C@H](C)NC(=O)[C@H](C)NC(=O)CCOCCOCCOCCOCCOCCOCCN2C(=O)C=CC2=O)[C@H](O)[C@H](C)O1 [QHL-012-DOX] ({Mal(CH2CH2O)6CH2CH2CO}-AANL-{Doxorubicin(3'-N)}) | 93.2% | – | – | – | Tumor volume (mm^3) Day 28 [1]: 197.4 ± 104.5 mm^3
4 | CC(C)CC(NC(=O)[C@@H](CC(N)=O)NC(=O)[C@@H](C)NC(=O)[C@@H](C)NC(=O)CCOCCOCCNC(=O)CCN1C(=O)C=CC1=O)C(=O)Nc1nccc(-c2sc(C(C)(C)C)nc2-c2cccc(NS(=O)(=O)c3c(F)cccc3F)c2F)n1 (stereo partly drawn) [QHL-087-dabrafenib] ({Propanoyl(3-maleimido)-PEG2}-[dA][dA][dN][ξL]-X2) | – | > 10000 µg/mL | – | – | CD8:CD45 (%) [3]: 6.4%; Tumor inhibition rate (%) Day 28 [3]: 64.0%; Tumor volume (mm^3) Day 28 [3]: 678.4 ± 348.7 mm^3
5 | COc1cccc2c1C(=O)c1c(O)c3c(c(O)c1C2=O)C[C@@](O)(C(=O)CO)C[C@@H]3O[C@H]1C[C@H](NC(=O)[C@H](CC(C)C)NC(=O)[C@H](CC(N)=O)NC(=O)[C@H](C)NC(=O)[C@H](C)NC(=O)CCOCCOCCOCCNC(=O)CCN2C(=O)C=CC2=O)[C@H](O)[C@H](C)O1 [QHL-090-DOX] | 100% | – | – | – | –
6 | CC(C)CC(NC(=O)[C@@H](CC(N)=O)NC(=O)[C@@H](C)NC(=O)[C@@H](C)NC(=O)CCOCCOCCOCCNC(=O)CCN1C(=O)C=CC1=O)C(=O)Nc1nccc(-c2sc(C(C)(C)C)nc2-c2cccc(NS(=O)(=O)c3c(F)cccc3F)c2F)n1 (stereo partly drawn) [QHL-090-dabrafenib] ({Propanoyl(3-maleimido)-PEG3}-[dA][dA][dN][ξL]-X2) | – | > 10000 µg/mL | – | – | CD8:CD45 (%) [3]: 7.4%; therapeutic effect combined with PD-1, in words ([3]; combined with PD-1 versus single drug): a certain synergistic effect; Tumor inhibition rate (%) Day 28 [3]: 68.7%; Tumor volume (mm^3) Day 28 [3]: 589.7 ± 247.4 mm^3
7 | COc1cccc2c1C(=O)c1c(O)c3c(c(O)c1C2=O)C[C@@](O)(C(=O)CO)C[C@@H]3O[C@H]1C[C@H](NC(=O)[C@H](CC(C)C)NC(=O)[C@H](CC(N)=O)NC(=O)[C@H](C)NC(=O)[C@H](C)NC(=O)CCOCCOCCOCCOCCNC(=O)CCN2C(=O)C=CC2=O)[C@H](O)[C@H](C)O1 [QHL-093-DOX] ({Propanoyl(3-maleimido)-PEG4}-AANL-{Doxorubicin(3'-N)}) | 94.2% | – | – | – | –
8 | COc1cccc2c1C(=O)c1c(O)c3c(c(O)c1C2=O)C[C@@](O)(C(=O)CO)C[C@@H]3O[C@H]1C[C@H](NC(=O)[C@H](CC(C)C)NC(=O)[C@H](CC(N)=O)NC(=O)[C@H](C)NC(=O)[C@H](C)NC(=O)CCOCCOCCOCCOCCOCCOCCNC(=O)CCN2C(=O)C=CC2=O)[C@H](O)[C@H](C)O1 [QHL-096-DOX] ({Propanoyl(3-maleimido)-PEG6}-AANL-{Doxorubicin(3'-N)}) | 100% | – | – | – | –
9 | COc1cccc2c1C(=O)c1c(O)c3c(c(O)c1C2=O)C[C@@](O)(C(=O)CO)C[C@@H]3O[C@H]1C[C@H](NC(=O)[C@H](CC(C)C)NC(=O)[C@H](CC(N)=O)NC(=O)[C@H](C)NC(=O)[C@H](C)NC(=O)[C@H](CC(=O)O)NC(=O)CCCCCN2C(=O)C=CC2=O)[C@H](O)[C@H](C)O1 [QHL-120-DOX] ({Hexanoyl(6-maleimido)}-DAANL-{Doxorubicin(3'-N)}) | 92.8% | – | – | – | –
10 | CCOCc1nc2c(NC(=O)OCc3ccc(NC(=O)[C@H](CC(N)=O)NC(=O)[C@H](C)NC(=O)[C@H](C)NC(=O)CCCCCN4C(=O)C=CC4=O)cc3)nc3ccccc3c2n1CC(C)(C)O [QHL-140-resiquimod] | – | – | – | – | CD8:CD45 (%) [3]: 15.4%; Tumor inhibition rate (%) Day 28 [3]: 81.9%; Tumor volume (mm^3) Day 28 [3]: 342.8 ± 112.9 mm^3
11 | C[C@H](NC(=O)CCCCCN1C(=O)C=CC1=O)C(=O)N[C@@H](C)C(=O)N[C@@H](CC(N)=O)C(=O)N[C@@H](Cc1cc(I)c(Oc2ccc(O)c(I)c2)c(I)c1)C(=O)O [QHL-150-T3] ({Hexanoyl(6-maleimido)}-AAN[Thyronine(3,5,3'-I3)]-OH) | – | > 10000 µg/mL | 86.8% | 119.32% | –
12 | C[C@H](NC(=O)CCOCCOCCNC(=O)CCN1C(=O)C=CC1=O)C(=O)N[C@@H](C)C(=O)N[C@@H](CC(N)=O)C(=O)N[C@@H](Cc1cc(I)c(Oc2ccc(O)c(I)c2)c(I)c1)C(=O)O [QHL-157-T3] ({Propanoyl(3-maleimido)-PEG2}-AAN[Thyronine(3,5,3'-I3)]-OH) | – | > 10000 µg/mL | 94.8% | 110.7% | –
13 | C[C@H](NC(=O)CCOCCOCCOCCNC(=O)CCN1C(=O)C=CC1=O)C(=O)N[C@@H](C)C(=O)N[C@H](CC(N)=O)C(=O)N[C@@H](Cc1cc(I)c(Oc2ccc(O)c(I)c2)c(I)c1)C(=O)O [QHL-158-T3] ({Propanoyl(3-maleimido)-PEG3}-AA[dN][Thyronine(3,5,3'-I3)]-OH) | – | > 10000 µg/mL | 91.9% | 103.6% | –
14 | C[C@H](NC(=O)CCOCCOCCOCCOCCNC(=O)CCN1C(=O)C=CC1=O)C(=O)N[C@@H](C)C(=O)N[C@@H](CC(N)=O)C(=O)N[C@@H](Cc1cc(I)c(Oc2ccc(O)c(I)c2)c(I)c1)C(=O)O [QHL-159-T3] ({Propanoyl(3-maleimido)-PEG4}-AAN[Thyronine(3,5,3'-I3)]-OH) | – | > 10000 µg/mL | 97.7% | 105.3% | –
15 | C[C@H](NC(=O)CCOCCOCCOCCOCCOCCOCCNC(=O)CCN1C(=O)C=CC1=O)C(=O)N[C@@H](C)C(=O)N[C@H](CC(N)=O)C(=O)N[C@@H](Cc1cc(I)c(Oc2ccc(O)c(I)c2)c(I)c1)C(=O)O [QHL-160-T3] ({Propanoyl(3-maleimido)-PEG6}-AA[dN][Thyronine(3,5,3'-I3)]-OH) | – | > 10000 µg/mL | 89.4% | 117.5% | –
16 | CCC(C)(C)C(=O)O[C@H]1C[C@@H](C)C=C2C=C[C@H](C)[C@H](CC[C@@H]3C[C@@H](O)CC(=O)O3)[C@H]21 [simvastatin, reference compound] | – | – | 86.3% | 118.3% | –
